Reference: article PMC6001238, “Iterative Chemical Engineering of Vancomycin Leads to Novel Vancomycin Analogs With a High in Vitro Therapeutic Index” (Frontiers in Microbiology, 2018)
In brackets after ≈: the same amount, converted by molar mass.

Columns and labels:
VRE39 = assay: MIC in the absence and presence of 10 µM vancomycin (vanA induction); assay type: cell-based, Enterococcus faecalis
Method: The minimum inhibitory concentration (MIC) was determined using the broth microdilution method according to the antimicrobial susceptibility testing standards of the clinical and laboratory standards institute ([Clinical and Laboratory Standards Institute [CLSI], 2012]). Ultrapure water and non-inoculated broth were used as controls. In one case, a final concentration of 10 μM vancomycin was included with the vancomycin analog or control antibiotic.

MRSA = assay: Time-kill curves, MRSA at 4x MIC; assay type: cell-based, Staphylococcus aureus; details: 1-24 h
Method: Time-kill curves were determined based on the CLSI guidelines ([Clinical and Laboratory Standards Institute [CLSI], 1999]). Single colonies grown overnight at 37°C were resuspended in Ca^2+-adjusted (0.05 mg/mL) Mueller Hinton broth up to an optical density (625 nm) of 0.08–00.10 (corresponding to the 0.5 McFarland standard), followed by a 10-fold dilution in the same broth. Subsequently, 0.2 mL inoculum was added to 1.7 mL Ca^2+-adjusted (0.05 mg/mL) Mueller Hinton broth, followed by addition of the antibacterial compound (0.1 mL). The final concentration of the antibacterial compound corresponded to the 4x MIC value for that compound. For the antibiotic-free control, the compound was replaced by an equal volume of ultrapure water. The final inoculum concentration was approximately 10^6 CFU/mL. The cultures were continuously shaken at 37°C. After 1, 2, 4, 6, 8, and 24 h, a 0.1 mL aliquot was removed, serially diluted in cold 0.9% w/v NaCl and plated on BHI (VRE) and LB (MRSA) agar plates. Plates were incubated overnight at 37°C and colonies were counted.

VRE 39 = assay: Resistance development, serial exposure to subinhibitory doses, 20 cycles; assay type: cell-based, Enterococcus faecalis; details: subinhibitory doses (MIC/2)
Method: To monitor resistance development upon exposure to subinhibitory doses, the initial MIC of Vanc-39, Vanc-42 and daptomycin was determined against VRE 39. A new MIC assay was prepared using 1,000-fold diluted cells grown at MIC/2 (occasionally MIC/4 if growth in MIC/2 was too limited). This was repeated for 20 cycles and changes in MIC were monitored.

B. subtilis PSB3 = assay: MIC, broth microdilution, B. subtilis PSB3; assay type: cell-based, Bacillus subtilis
In short: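 Serial dilutions in broth, set up per CLSI guidance, gave the MIC. Where noted, test analogues or comparator antibiotics were combined with vancomycin at 10 μM final. Controls: ultrapure water, broth without inoculum.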

E. coli XL-1 blue MRF' = assay: MIC, broth microdilution, E. coli XL-1 blue MRF'; assay type: cell-based, Escherichia coli
In short: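 Susceptibility was scored by broth microdilution (CLSI). In one instance each vancomycin analog or control antibiotic was tested in the presence of vancomycin, 10 μM final, and ultrapure water plus non-inoculated broth were included as controls.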

[1] = system: lipid II with terminal D-Ala-D-Lac; design: method as in Arthur and Courvalin, 1993; Walsh et al., 1996; details: D-Ala-D-Lac versus D-Ala-D-Ala termini ref Arthur and Courvalin, 1993; Walsh et al., 1996; cited from earlier work

Compound | MIC (VRE39; VRE39, 0 µM vancomycin) | MIC (VRE39; VRE39, 10 μM vancomycin added) | time-kill curve character (MRSA) | change in MIC upon serial exposure (VRE 39) | also measured
CNC(CC(C)C)C(=O)NC1C(=O)NC(CC(N)=O)C(=O)NC2C(=O)NC3C(=O)NC(C(=O)NC(C(=O)NCCCNC(=O)c4cc5ccccc5[nH]4)c4cc(O)cc(O)c4-c4cc3ccc4O)C(O)c3ccc(c(Cl)c3)Oc3cc2cc(c3OC2OC(CO)C(O)C(O)C2OC2CC(C)(N)C(O)C(C)O2)Oc2ccc(cc2Cl)C1O (stereo not drawn) [Vanc-24] | 3.13 µM | 6.25 µM | quickest onset of killing | – | –
CCCCc1ccc(NC(=O)CNC(=O)[C@H]2NC(=O)[C@H]3NC(=O)[C@H](NC(=O)[C@@H]4NC(=O)[C@H](CC(N)=O)NC(=O)[C@H](NC(=O)[C@@H](CC(C)C)NC)[C@H](O)c5ccc(c(Cl)c5)Oc5cc4cc(c5O[C@@H]4O[C@H](CO)[C@@H](O)[C@H](O)[C@H]4O[C@H]4C[C@](C)(N)[C@H](O)[C@H](C)O4)Oc4ccc(cc4Cl)[C@H]3O)c3ccc(O)c(c3)-c3c(O)cc(O)cc32)cc1 [Vanc-39] | 1.56 µM | 6.25 µM | – | oscillated between the original value and a twofold increase | –
CNC(CC(C)C)C(=O)NC1C(=O)NC(CC(N)=O)C(=O)NC2C(=O)NC3C(=O)NC(C(=O)NC(C(=O)NCCCNC(=O)c4ccc5cc(NS(=O)(=O)c6ccc(C(C)C)cc6)ccc5c4)c4cc(O)cc(O)c4-c4cc3ccc4O)C(O)c3ccc(c(Cl)c3)Oc3cc2cc(c3OC2OC(CO)C(O)C(O)C2OC2CC(C)(N)C(O)C(C)O2)Oc2ccc(cc2Cl)C1O (stereo not drawn) [Vanc-66] | 3.13 µM | 3.13 µM | – | – | –
CN(C)c1cc(NC(=O)CNC(C)(C)C)c(O)c2c1C[C@H]1C[C@H]3[C@H](N(C)C)C(O)=C(C(N)=O)C(=O)[C@@]3(O)C(O)=C1C2=O [Tigecycline, reference compound] | – | – | typical bacteriostatic time-kill curve | – | –
CCCCCCCCCC(=O)N[C@@H](Cc1c[nH]c2ccccc12)C(=O)N[C@H](CC(N)=O)C(=O)N[C@@H](CC(=O)O)C(=O)N[C@@H]1C(=O)NCC(=O)N[C@@H](CCCN)C(=O)N[C@@H](CC(=O)O)C(=O)N[C@H](C)C(=O)N[C@@H](CC(=O)O)C(=O)NCC(=O)N[C@H](CO)C(=O)N[C@@H]([C@H](C)CC(=O)O)C(=O)N[C@@H](CC(=O)c2ccccc2N)C(=O)O[C@@H]1C [Daptomycin, reference compound] | – | – | complete elimination after 24 h | eightfold higher concentration | –
CN[C@H](CC(C)C)C(=O)N[C@H]1C(=O)N[C@@H](CC(N)=O)C(=O)N[C@H]2C(=O)N[C@H]3C(=O)N[C@H](C(=O)N[C@H](C(=O)O)c4cc(O)cc(O)c4-c4cc3ccc4O)[C@H](O)c3ccc(c(Cl)c3)Oc3cc2cc(c3O[C@@H]2O[C@H](CO)[C@@H](O)[C@H](O)[C@H]2O[C@H]2C[C@](C)(N)[C@H](O)[C@H](C)O2)Oc2ccc(cc2Cl)[C@H]1O [Vancomycin] | – | – | – | – | MIC (B. subtilis PSB3; Bacillus subtilis): 0.39 µM (≈ 0.565 µg/mL); MICvanc/MICi (B. subtilis PSB3; ratio of MIC of vancomycin and MIC of analogue): 1; MICvanc/MICi (E. coli XL-1 blue MRF'; E. coli XL-1 blue MRF', ratio of MIC of vancomycin and MIC of analogue): 1; MIC (E. coli XL-1 blue MRF'; Escherichia coli): 100 µM (≈ 145 µg/mL); MIC (VRE39; Enterococcus faecalis, VRE39, 0 µM vancomycin): 800 µM; MIC (VRE39; Enterococcus faecalis, VRE39, 10 μM vancomycin added): 400 µM; reduced affinity for vancomycin [1]: 1000 fold
CN[C@H](CC(C)C)C(=O)N[C@H]1C(=O)N[C@@H](CC(N)=O)C(=O)N[C@H]2C(=O)N[C@H]3C(=O)N[C@H](C(=O)N[C@H](C(=O)NCC(=O)Nc4ccc5c(c4)Cc4ccccc4-5)c4cc(O)cc(O)c4-c4cc3ccc4O)[C@H](O)c3ccc(c(Cl)c3)Oc3cc2cc(c3O[C@@H]2O[C@H](CO)[C@@H](O)[C@H](O)[C@H]2O[C@H]2C[C@](C)(N)[C@H](O)[C@H](C)O2)Oc2ccc(cc2Cl)[C@H]1O [Vanc-42] | 1.56 µM | 1.56 µM | – | oscillated between the original value and a twofold increase | –
